From the supplement of paper PMC10307832

Key:
Test in all cases: relative viability (nuclei count vs DMSO), 5 days (fraction); higher = more cells survive
[1] = compound: C1=CC(=CC=C1NC(=S)NNC2=C(C=C(C=C2[N+](=O)[O-])C(F)(F)F)[N+](=O)[O-])F [Kobe2602] + Cc1nc(Nc2ncc(C(=O)Nc3c(C)cccc3Cl)s2)cc(N2CCN(CCO)CC2)n1 [Dasatinib] (partner 0.075 µM)
How it was run: (§1)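 Lung cancer cell lines in 1536-well plates were dosed by pin tool the day after seeding, either with one drug alone or with a fixed anchor-drug dose plus five library-drug doses (not always all listed) in √10 steps. After 5 days, cells were fixed and their nuclei stained in one step (final 0.05% Triton X-100, 1% formaldehyde, 1 ug/ml Hoechst), then counted on 4× images. Relative viability is the nuclei count in treated wells divided by that in vehicle wells. Values are medians of duplicate plates.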

[2] = compound: COc1cc2nccc(Oc3ccc(NC(=O)C4(C(=O)Nc5ccc(F)cc5)CC4)cc3)c2cc1OC [Cabozantinib] + Cc1nc(Nc2ncc(C(=O)Nc3c(C)cccc3Cl)s2)cc(N2CCN(CCO)CC2)n1 [Dasatinib] (partner 0.075 µM)
How it was run: as §1

[3] = compound: O[C@@H](COc1cccc2ncccc12)CN1CCN([C@@H]2c3ccccc3[C@@H]3[C@H](c4ccccc42)C3(F)F)CC1 [Zosuquidar] + CS(=O)(=O)CCNCc1ccc(-c2ccc3ncnc(Nc4ccc(OCc5cccc(F)c5)c(Cl)c4)c3c2)o1 [Lapatinib] (partner 2 µM)
How it was run: as §1

[4] = compound: O[C@@H](COc1cccc2ncccc12)CN1CCN([C@@H]2c3ccccc3[C@@H]3[C@H](c4ccccc42)C3(F)F)CC1 [Zosuquidar] + N=C(N)NC(=N)NCCc1ccccc1 [Phenformin] (partner 250 µM)
How it was run: as §1

Cell Line	relative viability ([1]; first compound 0.2 µM)	relative viability ([1]; first compound 0.6325 µM)	relative viability ([1]; first compound 2 µM)	relative viability ([1]; first compound 6.325 µM)	relative viability ([1]; first compound 20 µM)	relative viability ([2]; first compound 0.02 µM)	relative viability ([2]; first compound 0.06325 µM)	relative viability ([2]; first compound 0.2 µM)	relative viability ([2]; first compound 0.6325 µM)	relative viability ([2]; first compound 2 µM)	relative viability ([3]; first compound 0.01 µM)	relative viability ([3]; first compound 0.03162 µM)	relative viability ([3]; first compound 0.1 µM)	relative viability ([3]; first compound 0.3162 µM)	relative viability ([3]; first compound 1 µM)	relative viability ([4]; first compound 0.01 µM)	relative viability ([4]; first compound 0.03162 µM)	relative viability ([4]; first compound 0.1 µM)	relative viability ([4]; first compound 0.3162 µM)	relative viability ([4]; first compound 1 µM)
201T	0.618	0.59	0.568	0.497	0.484	0.385	0.549	0.573	0.534	0.545	0.996	1.05	0.881	1.02	0.997	0.449	0.444	0.404	0.468	0.472
SK-LU-1	0.18	0.184	0.177	0.17	0.187	0.138	0.164	0.174	0.155	0.156	0.905	0.918	1.02	0.79	1.01	0.547	0.522	0.531	0.632	0.557
NCI-H1734	0.425	0.543	0.432	0.478	0.468	0.389	0.452	0.467	0.402	0.34	1.03	1.02	1.1	1.07	1.13	0.395	0.372	0.407	0.466	0.385
NCI-H1651	0.596	0.362	0.429	0.402	0.37	0.336	0.39	0.327	0.335	0.396	0.866	0.902	0.865	1.02	0.943	0.314	0.343	0.282	0.401	0.307
PC-3 [JPC-3]	1.01	0.949	0.996	0.944	0.99	0.89	1.21		1.1	0.993	0.449	0.429	0.401	0.433	0.447	0.493	0.493	0.462	0.46	0.453
NCI-H1915	0.336	0.338	0.289	0.318	0.341	0.32	0.316	0.294	0.352	0.322	0.988	0.996	0.953	1.05	1.01	0.377	0.386	0.347	0.38	0.37
COR-L23	0.507	0.561	0.482	0.55	0.555	0.537	0.425	0.466	0.452	0.36	0.953	0.934	0.968	1.15	1.34	0.422	0.413	0.416	0.514	0.453
HOP-62	0.646	0.69	0.593	0.689	0.721	0.603	0.703	0.529	0.579	0.41	0.862	1.05	0.951	1.07	1.07	0.7	0.637	0.688	0.719	0.684
NCI-H1975	0.31	0.371	0.334	0.302	0.23	0.285	0.365	0.344	0.36	0.326	0.796	0.7	0.945	0.991	0.858	0.397	0.378	0.417	0.42	0.399
BEN	0.322	0.353	0.395	0.303	0.324	0.294	0.391	0.313	0.318	0.232	0.79	0.718	0.594	0.825	0.745	0.268	0.245	0.263	0.265	0.26
NCI-H1563	0.473	0.473	0.466	0.467	0.527	0.386	0.424	0.43	0.498	0.452	0.99	0.81	0.813	1.04	0.855	0.671	0.681	0.595	0.666	0.683
EMC-BAC-2	0.33	0.322	0.338	0.367	0.376	0.244	0.334	0.286	0.292	0.262	0.852	0.925	0.816	0.986	0.954	0.523	0.541	0.517	0.602	0.537
NCI-H727	0.376	0.384	0.342	0.484	0.392	0.298	0.455	0.284	0.348	0.298	0.846	0.795	0.748	1.02	0.94	0.318	0.563	0.466	0.522	0.519
LU99A	0.427	0.461	0.433	0.525	0.615	0.461	0.715	0.412	0.448	0.523	0.918	0.954	1.11	1.05	0.982	0.859	0.793	0.834	0.971	0.808
NCI-H2405	0.24	0.211	0.215	0.228	0.228	0.171	0.232	0.215	0.212	0.215	1.17	0.971	1.15	1.24	1.11	0.406	0.348	0.344	0.46	0.388
NCI-H2009	0.282	0.368	0.332	0.336	0.312	0.289	0.298	0.267	0.217	0.201	0.931	0.905	0.891	1.09	0.849	0.503	0.47	0.481	0.518	0.498
HCC-827	0.289	0.284	0.43	0.388	0.404	0.327	0.31		0.262	0.242	0.183	0.246	0.178	0.19	0.246	0.351	0.467	0.333	0.413	0.398
NCI-H838	0.264	0.309	0.249	0.291	0.289	0.251	0.309	0.312	0.338	0.281	1.04	0.765	0.858	1.18	1.06	0.568	0.418	0.432	0.663	0.576
CAL-12T	0.462	0.388	0.413	0.474	0.376	0.324	0.341	0.354	0.327	0.221	0.716	0.84		0.768	0.819	0.634	0.629	0.554	0.576	0.582
RERF-LC-KJ	0.769	0.714	0.652	0.556	0.405	0.84	0.77	0.763	0.853	0.923	0.786	0.902	0.841	0.943	0.811	0.41	0.45	0.397	0.402	0.355
NCI-H2347	0.377	0.282	0.315	0.364	0.414	0.3	0.283	0.321		0.296	0.888	0.931	0.908	1.06	0.925	0.411	0.394	0.253	0.396	0.426
PC-14	0.253	0.253	0.259	0.211	0.139	0.219	0.339	0.0309	0.246	0.195	0.316	0.284	0.259	0.416	0.288	0.502	0.533	0.447	0.645	0.47
HCC-366	0.613	0.632	0.597	0.646	0.727	0.43	0.664	0.536	0.584	0.628	1.08	1.08	1.15	1.01	1.15	0.61	0.674	0.623	0.718	0.575
LCLC-97TM1	0.886	0.759	0.705	0.937	0.802	0.723	0.854	0.757	0.848	0.717	1.07	1.13		1.27	0.881	0.409	0.442	0.46	0.454	0.445
A-427	0.673	0.766	0.675	0.701	0.779	0.81	0.705	0.695	0.706	0.795	1.07	1.02	0.842	1.07	1.01	0.344	0.324	0.368	0.401	0.383
NCI-H23	0.697	0.879	0.776	0.817	1.02		1.17	0.808	0.936	0.598	1.15	1.16	1.38	1.23	1.15	0.722	0.708	0.78	0.895	0.805
NCI-H520	0.205	0.233	0.197	0.222	0.202	0.18	0.204	0.215	0.201	0.199	0.878	0.827	0.569	0.855	0.982	0.567	0.579		0.658	0.565
